According to publication PMC5069304 (Clinical Pharmacokinetics, 2016):

Tests used:
[1] = Exposure assessment for dose proportionality, phase II dose-finding trial; format: in vivo, human
[2] = Population pharmacokinetic analysis of plasma liraglutide; format: in vivo, human
[3] = 60 kg subject vs reference subject weighing 100 kg
[4] = 234 kg subject vs reference subject weighing 100 kg

CCCCCCCCCCCCCCCC(=O)N[C@@H](CCC(=O)NCCCC[C@H](NC(=O)[C@H](C)NC(=O)[C@H](C)NC(=O)[C@H](CCC(N)=O)NC(=O)CNC(=O)[C@H](CCC(=O)O)NC(=O)[C@H](CC(C)C)NC(=O)[C@H](Cc1ccc(O)cc1)NC(=O)[C@H](CO)NC(=O)[C@H](CO)NC(=O)[C@@H](NC(=O)[C@H](CC(=O)O)NC(=O)[C@H](CO)NC(=O)[C@@H](NC(=O)[C@H](Cc1ccccc1)NC(=O)[C@@H](NC(=O)CNC(=O)[C@H](CCC(=O)O)NC(=O)[C@H](C)NC(=O)[C@@H](N)Cc1cnc[nH]1)[C@@H](C)O)[C@@H](C)O)C(C)C)C(=O)N[C@@H](CCC(=O)O)C(=O)N[C@@H](Cc1ccccc1)C(=O)N[C@H](C(=O)N[C@@H](C)C(=O)N[C@@H](Cc1c[nH]c2ccccc12)C(=O)N[C@@H](CC(C)C)C(=O)N[C@H](C(=O)N[C@@H](CCCNC(=N)N)C(=O)NCC(=O)N[C@@H](CCCNC(=N)N)C(=O)NCC(=O)O)C(C)C)[C@@H](C)CC)C(=O)O [liraglutide, Liraglutide]
geometric mean of the individual apparent clearance estimates ([1]; Trial 3): 0.93 L/h
dose proportionality of model-derived AUC by dose ([1]; obese individuals, 1.2, 1.8, 2.4, 3.0 mg once daily, week 20): supported dose proportionality of liraglutide up to and including 3.0 mg
CL/F lower than in reference subject [2, 3]: 29%
liraglutide exposure higher than in reference subject [2, 3]: 41%
CL/F higher than in reference subject [2, 4]: 78%
liraglutide exposure lower than in reference subject [2, 4]: 44%
liraglutide exposure lower in males than in females ([2]; comparable body weight): 24%
liraglutide exposure lower in subjects with T2DM than in normoglycaemic subjects ([2]; confounded by trial (all T2DM subjects from Trial 2)): 16%
higher exposure in Trial 1 than in Trial 2 ([2]; liraglutide 3.0 mg): 29%
liraglutide exposure higher in females than males ([2]; same/comparable body weight): 32%
